Data on one compound can be found in article PMC11123956, “Nobiletin Stimulates Adrenal Hormones and Modulates the Circadian Clock in Mice” (Nutrients, 2024).

In one experiment the test system is Per1 mRNA. Nature of the experiment: Real-time RT-PCR of Per1 mRNA in peripheral tissues. Format: in vivo, mice. On the procedure: (§1) Male C57BL/6J mice (7 weeks old) were purchased from Charles River Japan (Kanagawa, Japan) and used for the serum hormone assay and RT-PCR. Male ICR mice were purchased from Tokyo Laboratory Animals Science Co., Ltd. (Tokyo, Japan), and female PERIOD2::LUCIFERASE (PER2::LUC) knock-in mice (ICR background) bred at Waseda University were used for blood glucose measurements and in vivo imaging assays, respectively. The mice were all housed under conditions of controlled temperature (23 °C ± 3 °C), humidity (50% ± 20%), and lighting (lights on from 07:00 to 19:00 at Taisho Pharmaceutical Co., Ltd. or from 08:00 to 20:00 at Waseda University). In the 24 h cycle, Zeitgeber time 0 (ZT0) was designated as the time when the lights were turned on, and ZT12 was designated as the time when the lights were turned off. All the mice were given access to food and tap water ad libitum, and nobiletin (10–100 mg/kg; purchased from FUJIFILM Wako Pure Chemical Corporation, Osaka, Japan) was administered by intraperitoneal (i.p.) injection in the vehicle (10 mL/kg body weight) containing 0.5% carboxymethyl cellulose (CMC). Rolipram (PDE4 inhibitor, FUJIFILM Wako Pure Chemical Corporation) and SR1078 (RORα/γ agonist, FUJIFILM Wako Pure Chemical Corporation) were also used for the experiment at 10 mg/kg in 0.5% CMC [12]. Mice were euthanized by rapid decapitation for whole blood samples.
(§2) Figure 3 Nobiletin stimulated adrenaline and corticosterone secretion, and induced acute clock gene expression changes. (A–C) Mice received intraperitoneal injections of control (0.5% CMC) or nobiletin (10 or 100 mg/kg) at ZT3. (A) Serum corticosterone at 1 h after treatment (n = 6 in each). $$$ p < 0.001 by Tukey’s multiple comparisons test. (B) Serum corticosterone and adrenaline at 1, 2, and 4 h after treatment (n = 4 in each). # p < 0.05 vs. control at each time point by Mann–Whitney test; ** p < 0.01 vs. control at each time point by Student’s t-test. (C) Blood glucose changes after treatment (n = 9 in each). Statistics of 2-way repeated ANOVA are indicated on the graph. […]
A general note: Real-time PCR tracks product formation cycle by cycle.

The target of the next experiment is T1, PDE6 (Bos taurus, UniProt P11541+P23439).
T1 construct: Bovine retinal rod outer segments; tissue Eurofins Panlabs Discovery Services Taiwan, Ltd. (contract assay); host or cells: bovine retinal rod outer segments
Nature of the experiment: PDE enzyme  assay, PDE6. It is filed as biochemical, Bovine. On the procedure: (§3) Enzyme assays for various subtypes of PDE (Table 1 and Figure 4) were conducted by Eurofins Panlabs Discovery Services Taiwan, Ltd. (New Taipei City, Taiwan). In the assays, five or six concentrations of nobiletin over five or six orders of magnitude were examined in experiments conducted in duplicate to determine the IC50 (concentration of nobiletin exerting half-maximal inhibition of control-specific activity). IC50 values were determined by nonlinear least squares regression analysis using MathIQTM (ID Business Solutions Ltd., Woking, UK). FAM-cAMP, FAM-cGMP (0.1 μM), and 100 μM [^3H]cGMP + cGMP were used for the substrate in the human recombinant insect Sf9 cells or Bovine retinal rod outer segments depending on the PDE subtype. The spectrofluorometric quantitation of fluorescein-AMP-IMAP, fluorescein-GMP-IMAP, or [^3H] guanosine was used depending on the PDE subtype. A known […] of each PDE was used as the positive control.

Another experiment deals with T2, PDE3A (Homo sapiens, UniProt Q14432).
T2 construct: purchased Eurofins Panlabs Discovery Services Taiwan, Ltd. (contract assay); host or cells: insect Sf9 cells
Nature of the experiment: PDE enzyme  assay, PDE3A. Format: biochemical. On the procedure: as §3

The next experiment deals with Per2 mRNA. Nature of the experiment: Real-time RT-PCR of Per2 mRNA in peripheral tissues. Format: in vivo, mice. The conditions noted are these: liver, an hour after treatment. On the procedure: as §1, with “samples. […]” for “samples.”
Another experiment deals with T3, PDE11A4 (Homo sapiens, UniProt Q9HCR9).
T3 construct: purchased Eurofins Panlabs Discovery Services Taiwan, Ltd. (contract assay); host or cells: insect Sf9 cells
Nature of the experiment: PDE enzyme  assay, PDE11A4. Format: biochemical. On the procedure: as §3

The target in another experiment is T4, PDE7A (Homo sapiens, UniProt Q13946).
T4 construct: purchased Eurofins Panlabs Discovery Services Taiwan, Ltd. (contract assay); host or cells: insect Sf9 cells
Nature of the experiment: PDE enzyme  assay, PDE7A. Format: biochemical. On the procedure:
as §3

For a further experiment, the system named is Bmal1 mRNA. Nature of the experiment: Real-time RT-PCR of Bmal1 mRNA in peripheral tissues. Format: in vivo, mice. The conditions noted are these: after a single treatment. On the procedure: as §1, §2

T4 sequence (Q13946 whole entry): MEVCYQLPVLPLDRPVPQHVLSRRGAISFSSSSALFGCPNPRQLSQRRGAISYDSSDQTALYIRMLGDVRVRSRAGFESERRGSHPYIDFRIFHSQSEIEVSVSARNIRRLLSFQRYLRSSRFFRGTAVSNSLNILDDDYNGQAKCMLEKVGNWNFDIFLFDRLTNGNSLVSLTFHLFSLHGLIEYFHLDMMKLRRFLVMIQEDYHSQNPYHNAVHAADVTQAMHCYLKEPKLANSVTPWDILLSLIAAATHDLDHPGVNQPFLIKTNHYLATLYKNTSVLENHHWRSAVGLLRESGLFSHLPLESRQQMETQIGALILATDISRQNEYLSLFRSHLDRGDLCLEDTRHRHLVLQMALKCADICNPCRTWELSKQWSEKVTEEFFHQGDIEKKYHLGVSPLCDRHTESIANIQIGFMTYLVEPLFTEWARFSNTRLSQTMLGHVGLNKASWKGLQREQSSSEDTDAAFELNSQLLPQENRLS
T1 sequence (P11541 2-856 limits assumed): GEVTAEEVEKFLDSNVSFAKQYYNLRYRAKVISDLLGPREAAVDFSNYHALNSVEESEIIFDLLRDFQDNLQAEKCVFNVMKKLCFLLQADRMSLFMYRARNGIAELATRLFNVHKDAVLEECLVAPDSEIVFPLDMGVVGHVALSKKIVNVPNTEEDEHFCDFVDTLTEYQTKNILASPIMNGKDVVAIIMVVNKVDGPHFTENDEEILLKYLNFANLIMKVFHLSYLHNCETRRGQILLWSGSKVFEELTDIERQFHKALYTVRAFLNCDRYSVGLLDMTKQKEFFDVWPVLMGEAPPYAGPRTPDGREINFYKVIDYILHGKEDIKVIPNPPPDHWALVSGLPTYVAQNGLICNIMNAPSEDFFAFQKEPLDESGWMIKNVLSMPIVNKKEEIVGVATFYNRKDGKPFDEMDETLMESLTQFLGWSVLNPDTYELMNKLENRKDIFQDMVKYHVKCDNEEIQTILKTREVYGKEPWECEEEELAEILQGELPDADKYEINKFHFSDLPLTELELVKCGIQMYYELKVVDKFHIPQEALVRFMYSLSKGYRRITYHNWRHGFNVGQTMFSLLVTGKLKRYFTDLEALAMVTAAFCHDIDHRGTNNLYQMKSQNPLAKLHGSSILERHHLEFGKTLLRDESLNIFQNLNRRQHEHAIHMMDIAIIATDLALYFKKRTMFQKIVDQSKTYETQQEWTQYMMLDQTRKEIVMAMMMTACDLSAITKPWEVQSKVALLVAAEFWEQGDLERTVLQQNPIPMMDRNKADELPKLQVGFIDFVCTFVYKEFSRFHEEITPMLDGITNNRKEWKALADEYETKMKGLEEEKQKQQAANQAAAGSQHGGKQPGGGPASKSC
T1 sequence (P23439 2-850 limits assumed): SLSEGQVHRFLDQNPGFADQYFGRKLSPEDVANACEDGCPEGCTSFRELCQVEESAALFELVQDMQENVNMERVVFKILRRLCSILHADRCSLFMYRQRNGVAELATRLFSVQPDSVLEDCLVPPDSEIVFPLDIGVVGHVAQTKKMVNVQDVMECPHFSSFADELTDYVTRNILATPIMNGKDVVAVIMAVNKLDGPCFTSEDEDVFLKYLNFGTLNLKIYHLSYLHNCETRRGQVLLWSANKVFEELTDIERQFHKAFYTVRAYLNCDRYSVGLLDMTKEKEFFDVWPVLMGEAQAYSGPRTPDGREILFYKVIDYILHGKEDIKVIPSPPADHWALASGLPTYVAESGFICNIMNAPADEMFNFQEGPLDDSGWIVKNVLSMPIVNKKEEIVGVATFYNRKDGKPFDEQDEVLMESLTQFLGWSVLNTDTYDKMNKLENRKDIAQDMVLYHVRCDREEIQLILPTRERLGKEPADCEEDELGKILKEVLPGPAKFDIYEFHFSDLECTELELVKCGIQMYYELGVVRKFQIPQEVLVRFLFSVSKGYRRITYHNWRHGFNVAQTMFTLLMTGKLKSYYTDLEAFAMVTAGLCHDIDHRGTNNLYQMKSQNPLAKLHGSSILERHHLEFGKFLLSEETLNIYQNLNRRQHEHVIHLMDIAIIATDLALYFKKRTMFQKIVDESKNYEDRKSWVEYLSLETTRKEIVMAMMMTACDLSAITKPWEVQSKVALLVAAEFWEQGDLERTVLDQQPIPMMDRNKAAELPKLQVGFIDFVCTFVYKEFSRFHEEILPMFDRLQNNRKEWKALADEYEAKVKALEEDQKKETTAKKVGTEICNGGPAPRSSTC
T2 sequence (Q14432 whole entry): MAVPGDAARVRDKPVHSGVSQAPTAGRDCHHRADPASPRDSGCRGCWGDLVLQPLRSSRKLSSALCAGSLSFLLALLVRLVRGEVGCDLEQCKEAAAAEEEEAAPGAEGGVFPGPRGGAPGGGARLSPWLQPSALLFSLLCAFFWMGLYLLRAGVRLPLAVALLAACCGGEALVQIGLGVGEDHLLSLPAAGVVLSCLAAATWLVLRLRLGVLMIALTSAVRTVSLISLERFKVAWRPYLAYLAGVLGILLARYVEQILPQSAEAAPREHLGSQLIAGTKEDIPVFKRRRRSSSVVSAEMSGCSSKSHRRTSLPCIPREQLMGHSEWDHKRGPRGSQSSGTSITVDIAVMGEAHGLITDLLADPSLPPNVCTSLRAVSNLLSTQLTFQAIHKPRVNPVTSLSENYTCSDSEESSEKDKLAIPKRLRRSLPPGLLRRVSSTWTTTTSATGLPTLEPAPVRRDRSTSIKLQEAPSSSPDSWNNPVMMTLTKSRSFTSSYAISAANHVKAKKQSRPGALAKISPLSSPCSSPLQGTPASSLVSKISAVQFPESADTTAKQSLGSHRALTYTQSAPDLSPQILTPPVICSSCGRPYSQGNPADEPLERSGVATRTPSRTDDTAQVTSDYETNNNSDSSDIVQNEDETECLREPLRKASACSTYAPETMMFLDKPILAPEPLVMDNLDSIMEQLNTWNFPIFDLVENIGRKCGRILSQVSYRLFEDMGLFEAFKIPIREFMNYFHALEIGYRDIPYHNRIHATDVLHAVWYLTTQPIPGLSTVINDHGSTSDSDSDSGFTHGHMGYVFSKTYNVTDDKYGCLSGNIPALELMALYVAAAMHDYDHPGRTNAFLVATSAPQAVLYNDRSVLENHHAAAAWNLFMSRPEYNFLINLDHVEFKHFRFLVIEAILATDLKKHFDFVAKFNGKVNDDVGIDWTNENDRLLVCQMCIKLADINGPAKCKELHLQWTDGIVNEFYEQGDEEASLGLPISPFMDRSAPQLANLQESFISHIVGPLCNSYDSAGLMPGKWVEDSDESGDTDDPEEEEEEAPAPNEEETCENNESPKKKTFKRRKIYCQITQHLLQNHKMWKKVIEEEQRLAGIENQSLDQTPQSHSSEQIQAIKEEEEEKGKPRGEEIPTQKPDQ
T3 sequence (Q9HCR9 whole entry): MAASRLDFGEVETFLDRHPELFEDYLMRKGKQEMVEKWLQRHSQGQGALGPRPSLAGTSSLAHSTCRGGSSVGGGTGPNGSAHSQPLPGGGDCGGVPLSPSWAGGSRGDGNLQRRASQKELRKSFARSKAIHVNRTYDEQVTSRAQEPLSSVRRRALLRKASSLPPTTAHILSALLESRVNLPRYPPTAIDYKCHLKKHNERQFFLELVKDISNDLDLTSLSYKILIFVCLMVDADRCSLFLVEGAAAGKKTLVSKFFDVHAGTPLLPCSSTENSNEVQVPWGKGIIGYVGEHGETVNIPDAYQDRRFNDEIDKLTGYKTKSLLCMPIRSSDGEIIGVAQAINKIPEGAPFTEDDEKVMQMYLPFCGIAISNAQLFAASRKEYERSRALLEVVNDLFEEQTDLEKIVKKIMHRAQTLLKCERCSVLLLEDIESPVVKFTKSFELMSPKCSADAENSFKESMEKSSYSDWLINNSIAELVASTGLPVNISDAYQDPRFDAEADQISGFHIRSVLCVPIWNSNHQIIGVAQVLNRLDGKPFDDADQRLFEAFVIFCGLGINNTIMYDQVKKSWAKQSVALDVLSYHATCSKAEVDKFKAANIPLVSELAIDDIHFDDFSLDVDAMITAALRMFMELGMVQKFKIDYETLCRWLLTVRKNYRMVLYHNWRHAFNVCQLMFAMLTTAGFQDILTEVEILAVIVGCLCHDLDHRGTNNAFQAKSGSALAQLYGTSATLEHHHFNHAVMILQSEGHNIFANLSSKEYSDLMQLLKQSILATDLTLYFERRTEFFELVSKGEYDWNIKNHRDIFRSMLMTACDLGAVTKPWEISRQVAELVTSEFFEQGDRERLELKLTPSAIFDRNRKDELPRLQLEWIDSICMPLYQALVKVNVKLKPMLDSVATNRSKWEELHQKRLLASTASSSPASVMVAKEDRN

Usually IC50 stands for the concentration at which inhibition is half-maximal. Read a high IC50 as lower potency. In the case of `COc1ccc(-c2cc(=O)c3c(OC)c(OC)c(OC)c(OC)c3o2)cc1OC` [nobiletin], the “Per1 mRNA upregulation” value with Per1 mRNA (4 h after treatment (stomach)) is “diminished”. Further, the “Per1 mRNA” value with Per1 mRNA (kidney, liver (1 h) and stomach (2 h) after treatment) was “upregulated”. For the same compound, the half-inhibitory concentration (IC50) was 74.5 µM against PDE6, 16 µM on PDE3A, 31 µM against PDE11A4 and 11.9 µM against PDE7A. In addition, the Per2 expression result with Per2 mRNA was “decreased significantly”. The Bmal1 expression entry in the experiment on Bmal1 mRNA is “did not change significantly”.
